{"source": "paper PMC9862096", "about": "“Interaction of a Homologous Series of Amphiphiles with P-glycoprotein in a Membrane Environment—Contributions of Polar and Non-Polar Interactions” (Pharmaceutics, 2023)", "key": {"[1]": {"assay": "Calculation of local concentrations of the amphiphiles in membrane and aqueous medium from partition coefficients", "details": "for fraction associated with the lipid bilayer of the native membrane: 0.107 mg of protein per mL; for concentration in the aqueous phase: total amphiphile 50 µM, partition to native membranes; for fraction associated with the membranes: IAAP displacement conditions, 1 mg of protein per mL; for fraction of amphiphile in the membrane associated with proteins: low amphiphile concentrations, away from saturation; for concentration associated with the membrane: total concentration 60 µM", "excerpt": "A major limitation of the models used to analyze the effects on P–gp’s ATPase activity and IAAP displacement is the use of global concentrations. Interaction of the amphiphiles with P–gp is considered to occur from the membrane and, therefore, what is relevant is the amphiphile concentration in the lipid bilayer where P–gp is embedded. The importance of using local concentration in the analysis of the interaction of small molecules with membrane proteins has been pointed out before (e.g., [33, 35, 37, 46, 84, 85]), but, unfortunately, it is still overlooked. The local concentrations may be calculated from the partition coefficient of the amphiphiles between the aqueous media and the model membranes with the relevant lipid composition. […] An intermediate affinity is obtained for NBD–LysoMPE in spite of its longer aliphatic chain. This is due to its bigger and much polar (charged) head group. From the partition coefficients one may calculate the local concentration of amphiphile in the membrane for a given total concentration of amphiphile. At the concentration of native membranes used in the ATPase assays (0.107 mg of protein per mL), 2% of the NBD–C4 is associated with the lipid bilayer of the native membrane (see Supplementary Information, Section S10 for details). As expected, for the more lipophilic amphiphiles, the fraction associated with the lipid bilayer increases, being 53% for NBD–C8 and 13% for NBD–LysoMPE. In the IAAP displacement experiments, the amount of native membranes is almost 10 times higher (1 mg of protein per mL), leading to 18% of NBD–C4 associated with the membranes, and 91% and 58% for the case of NBD–C8 and NBD–LysoMPE, respectively.\nS10 – Calculation of the local concentration of the amphiphiles in the membrane and in the […]\nThe concentration of phospholipids (PL) in a solution containing native membranes is calculated from the concentration of protein and the ratio of PLs to prot eins (0.57 g PL/g P , average PL molar mass of 750 g/mol). The volume of the lipid bilayer (VLb) is then calculated considering a density of 1 g/cm3 for the phospholipids.\nTypical values for the conditions of the ATPase activity assays are given be low:\nThe volume occupied by proteins in the membrane (VP) was calculated considering a density of 1.2 g/cm3 (being 8.9 × 10‐5 × VT, and the total volume of native membranes is 1.5 × 10‐4 × VT.\nThe IAAP displacement assay was performed with a protein concentration of 1 g/L, leading to proportionally higher volumes of the lipid bilayer and proteins.\nKnowing the partition coefficients of the ligand one may calculate the fractions in each medium: […]\nThe fraction of amphiphile in the membrane (lipid bilayer plus membrane proteins), is given by:\nMLbP PLKVKV KVWL→→ →b WP WM+ fffVK VK VVK VK VLLL WL=+= =bPP PM , WP L++ ++→→ →→b WP WLbP PWP Lb WPbP P where WMK → is the partition coeff icient obtained experimentally between the aqueous media P and the native membranes.\nThe above equations are only valid if the system is away from saturation (at low concentrations of amphiphiles relative to the binding agents). At relatively high amphiphile concentrations, the proteins may become saturated, leading to a decrease in the apparent partition coefficient and to an increase in the relative fraction of amphiphile associated with the lipid bilayer.\nFrom the above equations one may calculate directly the concentration of amphiphile in each […]\nTo evaluate if the aqueous medium is saturated, this concentration sho uld be co mpared with the ligand critical aggregation concentration. P ossible perturbation of the lipid bilayer is best evaluated from the mo la r ratio of lipids to ligand bound (PL:L)"}, "[2]": {"assay": "Association (partition) of the NBD amphiphiles with native membranes, NBD fluorescence", "format": "physicochemical, High-Five insect cells", "details": "for LogKP, association with the native membranes: 37 °C, simplified ATPase assay buffer; for KPW→M: aqueous phase to native membrane", "experimental": "The membranes were diluted to the chosen concentration with simplified ATPase assay buffer and warmed to 37 °C. The NBD amphiphiles were added from stocks in DMSO (final DMSO 1% v/v) by squirting the required volume into the membrane solution under gentle vortex. Fluorescence intensity was measured after 15 to 30 min incubation at 37 °C using a Cary Eclipse spectrofluorimeter (Varian, Singapore). The path length of the sample container was selected to guarantee that scattering at the excitation wavelength was smaller than 0.1 while maintaining a good signal/noise ratio (3, 5, or 10 mm).\nThe increase in fluorescence of the NBD amphiphiles when associated with the model membranes was well described by a simple partition (Equation (S3)). The low affinity of the less lipophilic amphiphiles for the native membranes required the use of high membrane concentrations, and the fluorescence was measured with the plate reader SpectraMax iD5 (Molecular Devices, Berkshire, UK), where the reading setup is not very sensitive to scatter. To guarantee that the high scatter intensity was not leading to artifacts in the measured fluorescence intensity of NBD–C4, titrations of NBD-C6 and NBD–C8 were also performed in the same plate. For these two latter amphiphiles, the results obtained for the partition coefficient were similar to those obtained for experiments with low scatter intensity. A small decrease in the fluorescence intensity from NBD–C8 was nevertheless observed at very high scatter intensities (OD ≥ 0.5), which was used to correct the signal from the less lipophilic amphiphiles, see Supplementary Information (Figure S5 and Equation (S4)). The molar volume considered for the lipid was 0.8 dm^3/mol, and 1.2 g/mL was considered for the density of the membrane proteins.\nS3 – Partition of the NBD amphiphiles to lipid bilayers and native membranes The fluorescence increase that accompanies the association of the NBD amphiphiles with the model membra nes was well defined by a simple partition, equation S3. […]\nwhere IfW and If M are respec ti vel y the fluorescence intensity when all fluorescent amphiphile is in the aqueous phase and ass oci ated with the membranes, LbK is the partition co eff icient P between the aqueous and the lipid bilayer, V is the molar vo l u m e of the lipid when in the lipid L bi l ayer, and [L] is the lipid concentration.\nTo characterize the association of the NBD amphiphiles with the native membranes the whole membrane vo lume was considere d, including the lipid bilayer and the membrane proteins. For the ca se of the less lipophilic amphiphiles NBD‐C4 and NBD‐C6, a sig nif ica nt scatter from the […]\nboth to the larger size of the vesicles (ca 1 µm diameter, [1]) and to the high refractive index of the native membranes. The magnitude of the scatter effect was quantified through the best fit […]\npartition to the membranes at co n ce ntrations where scatter is not significant. The modified […]\nwhere s is the scatter correction factor for a given concentration of native membranes, If W and IfM are respectively the fluorescence intensity when all fluorescent amphiphile is in the aqueous phase and associated with the membranes, WMK → is the partition coefficient between the P aqueous phase and the native membrane, V is the molar volume of the lipid when in the L membrane and [L] the molar concentration of the membrane lipids, V is the vo lume occupied P by 1 g of membrane protein (assuming a density of 1.2 g/mL) and [P] is the protein concentration in units of ma ss per volume.\nTypical results obtained for the variation of the fluorescence intensity at 540 nm of the NBD‐Cn fluorophores equilibrated with increasing concentrations of native membranes, are shown in figure S3. The fluorescence intensity was measured in black 96 well plates with the plate reader […]\nSpectraMax iD5. The NBD‐Cn concentrations we re 0.5 µM for NBD‐C8 , 1 µM for NBD‐C6, and 2 µM for NBD‐C4, and the total volume per well was 150 µL. […]"}, "[3]": {"details": "membrane volume = phospholipid bilayer and P–gp (binding to the protein P–gp only)"}, "[4]": {"details": "membrane volume = phospholipid bilayer and all proteins (binding to all membrane proteins with equal affinity)"}}, "data": [{"smiles": "CCCCCCCCCCCCCC(=O)OCC(O)COP(=O)(O)OCCNc1ccc([N+](=O)[O-])c2nonc12", "note": "(stereo not drawn) [NBD–LysoMPE]", "values": [{"measurement": "fraction associated with the lipid bilayer of the native membrane", "setting": "[1]; ATPase assay conditions", "value": 13, "unit": "%"}, {"measurement": "concentration in the aqueous phase", "setting": "[1]; ATPase assay conditions", "value": 12, "unit": "µM"}, {"measurement": "concentration in the aqueous phase", "setting": "[1]; IAAP assay conditions", "value": 2, "unit": "µM"}, {"measurement": "fraction associated with the membranes", "setting": "[1]", "value": 58, "unit": "%"}, {"measurement": "LogKP, association with the native membranes", "setting": "[2]", "value": "4.34 ± 0.25"}]}, {"smiles": "CCCCCCCCNc1ccc([N+](=O)[O-])c2nonc12", "note": "[NBD–C8]", "values": [{"measurement": "fraction associated with the lipid bilayer of the native membrane", "setting": "[1]; ATPase assay conditions", "value": 53, "unit": "%"}, {"measurement": "concentration in the aqueous phase", "setting": "[1]; ATPase assay conditions", "value": 21, "unit": "µM"}, {"measurement": "concentration in the aqueous phase", "setting": "[1]; IAAP assay conditions", "value": 4, "unit": "µM"}, {"measurement": "fraction associated with the membranes", "setting": "[1]", "value": 91, "unit": "%"}, {"measurement": "fraction of amphiphile in the membrane associated with proteins", "setting": "[1]", "value": 15, "unit": "%"}, {"measurement": "LogKP, association with the native membranes", "setting": "[2]", "value": "3.95 ± 0.14"}, {"measurement": "KPW→M", "setting": "[2]; [3]", "value": "2.2 × 10^4"}, {"measurement": "KPW→M", "setting": "[2]; [4]", "value": "9.0 × 10^3"}]}, {"smiles": "CCCCNc1ccc([N+](=O)[O-])c2nonc12", "note": "[NBD–C4]", "values": [{"measurement": "fraction associated with the lipid bilayer of the native membrane", "setting": "[1]; ATPase assay conditions", "value": 2, "unit": "%"}, {"measurement": "concentration associated with the membrane", "setting": "[1]; ATPase assay conditions", "value": 1.4, "unit": "µM"}, {"measurement": "concentration associated with the membrane", "setting": "[1]; IAAP assay conditions (membrane 10-fold higher)", "value": 11, "unit": "µM"}, {"measurement": "fraction associated with the membranes", "setting": "[1]", "value": 18, "unit": "%"}, {"measurement": "fraction of amphiphile in the membrane associated with proteins", "setting": "[1]", "value": 72, "unit": "%"}, {"measurement": "LogKP, association with the native membranes", "setting": "[2]", "value": "2.75 ± 0.20"}, {"measurement": "KPW→M", "setting": "[2]; [3]", "value": "1.4 × 10^3"}, {"measurement": "KPW→M", "setting": "[2]; [4]", "value": "5.7 × 10^2"}]}]}
